Data on three compounds can be found in patent US10016500B2, “Poloxamer-based pharmaceutical compositions for treating wounds” (Professional Compounding Centers of America (PCCA), priority 2014, dated 2018).

The assay deals with C. albicans ATCC 90028 biofilm. As to the kind of experiment: Antifungal biofilm susceptibility testing (Minimum Biofilm Inhibitory Concentration, broth microdilution, CellTiter 96). Format: cell-based, Candida albicans. To be noted: for Minimum Biofilm Inhibitory Concentration: lowest concentration giving 50% reduction of fungal growth, 48 h at 35° C., combination expressed as concentration of itraconazole. Here is the method:
Materials: Itraconazole EP Micronized (lot number C149307) and PCCA Formula #10342 (4 g of Itraconazole EP Micronized+37.574 g of Poloxamer composition) were provided by PCCA (Houston, Tex., USA) as powders. Itraconazole and PCCA Formula #10342 were prepared on the day of the assay. Fluconazole and amphotericin B were obtained as powders and stored at 4° C. […] Strain: Candida albicans isolate ATCC 90028 was obtained from American Type Culture Collection (Manassas, Va.), and used in the course of this study. Methods: In order to determine antimicrobial activity of itraconazole and the micronized poloxamer composition against biofilms of Candida albicans, an antifungal biofilm susceptibility testing was developed in conditions where a Minimum Biofilm Inhibitory Concentration (MBIC) of itraconazole within the micronized poloxamer composition, micronized poloxamer excipient, itraconazole, fluconazole and amphotericin B was measured for the C. albicans biofilm according to the conventional NCCLS M27-A broth microdilution method. The testing medium used for growing was RPMI 1640 (American Biorganics, Inc., […].) supplemented with L-glutamine (Sigma Aldrich®). Yeast inocula (100 μL of 1×10^6 cells/mL) were added to each well of 96-well microtiter plates (Corning) and incubated at 37° C. for 48 h. After biofilm formation, medium was aspirated and non-adherent cells were […] (PBS, Sigma Aldrich®). […] A series of sample-free wells and biofilm-free wells were also included to serve as positive and negative controls, respectively. […] Cell viability was determined by using a conventional CellTiter 96® Non-Radioactive Cell Proliferation Assay.
(Dilution methods test growth across graded concentrations, often in twofold steps.)

A value given as a limit tells only on which side of the number the result lay.

As to `C[C@@H]1[C@H](O)[C@@H](C)/C=C/C=C/C=C/C=C/C=C/C=C/C=C/[C@H](O[C@@H]2O[C@H](C)[C@@H](O)[C@H](N)[C@@H]2O)C[C@@H]2O[C@](O)(C[C@@H](O)C[C@@H](O)[C@H](O)CC[C@@H](O)C[C@@H](O)CC(=O)O[C@H]1C)C[C@H](O)[C@H]2C(=O)O` [Amphotericin B, amphotericin B], the MBIC was determined as 0.5 µg/mL and the “Minimum Biofilm Inhibitory Concentration” value was 0.5 µg/mL.
Take `OC(Cn1cncn1)(Cn1cncn1)c1ccc(F)cc1F` [Fluconazole, fluconazole]: the MBIC was more than 1024 µg/mL and the “Minimum Biofilm Inhibitory Concentration” value is recorded as >1,024 ug/mL.
Regarding `CCC(C)n1ncn(-c2ccc(N3CCN(c4ccc(OCC5COC(Cn6cncn6)(c6ccc(Cl)cc6Cl)O5)cc4)CC3)cc2)c1=O` (centres unmarked) [Itraconazole, itraconazole], the “Minimum Biofilm Inhibitory Concentration” value came out at 1024 µg/mL.
